Data taken from patent US20230346943A1, “SPACER-MEDIATED CONTROL OF UNCAGING PHOTOCAGED MOLECULES” (The Regents of the University of California, priority 2020, published 2023).

What was measured:
[1] = UV-vis absorption property; conditions: for λmax: UV-vis spectrum; for λmax / Molar absorptivity ε at λmax: 35% aq methanol
Method: We observed the absorption properties of the coumarin (DEACM), a common photocage present in 1 and 2, as shown in their UV-vis spectra (FIG. 2A).
Spectra for UV-vis Absorption Were Recorded With a Perkin Elmer Lamda 20 Spectrophotometer.

[2] = Photolysis (photon uncaging) kinetics of photocaged thymidine monitored by UPLC; assay type: physicochemical; conditions: for Rate constant (first order) for the decay of photocaged thymidine (kdecay) / Quantum efficiency (Φ) of release for thymidine (dT) / Quantum efficiency (Φ) of release for thymidine-retaining byproduct(s): 35% (v/v) aq methanol; for Efficiency of thymidine release (max): maximal free thymidine released on photolysis; for Formation of thymidine-bearing byproduct dT^N-DEACM on photolysis: regardless of the light wavelength (365, 420, 455 nm)
Method: Photolysis of 1 was performed in an aqueous medium (0.21 mM in 35% (v/v) aq methanol), and its uncaging kinetics was determined by monitoring exposed solutions using UV-vis spectroscopy and UPLC (FIGS. 3A-3D). UV-vis spectra acquired after photolysis at 420 nm (exposure time = 0-20 min) show absorption changes in an exposure time-dependent manner (FIGS. 5A-5F), but these are not applicable for the detection and quantitation of thymidine released. In contrast, UPLC traces acquired after photolysis (FIG. 3A) show the disappearance of 1 with the concomitant growth of free thymidine (dT) (tr = 3.1 min) along with coumarin photocage detached 5 (tr = 6.5 min). The area under curve (AUC) analysis of these peaks provided a decay curve for 1 (FIG. 3B). Its regression analysis allowed determining a rate constant for first-order decay (kdecay = 1.5 ×10^-3 sec^-1), and quantum efficiency for thymidine release (ΦdT = 0.015) (Table 1).
We similarly evaluated the uncaging kinetics of 2 dT^O-Bn-DEACM (0.17 mM in 35% (v/v) aq methanol) by irradiation at 420 nm (FIGS. 3C-3D). Its photolysis led to smaller changes in UV-vis spectra with lack of a clear trend compared to 1 dT^O-DEACM (FIGS. 5A-5F). Overlaid UPLC traces show time-dependent, rapid uncaging of 2 with ~65% release of thymidine achieved after an initial exposure for 5 min. […] Regression analysis of its decay curve provided a decay constant (kdecay = 1.1×10^-3 sec^-1), which is slightly lower than that of 1 (Table 1). However, its lack of the byproduct formation makes a positive contribution to enhancing its quantum efficiency for thymidine release (ΦdT = 0.025) compared to 1 (ΦdT = 0.015). This clean uncaging kinetics offers evidence for greater advantages in thymidine uncaging by the extended spacer than the direct ether linkage.
UPLC was performed for homogeneity analysis and compound characterization in a Waters Acquity System combined with a photodiode array (PDA) detector. The UPLC analysis involved running a sample in a C4 BEH column (100 × 2.1 mm, 300 Å) at a flow rate of 0.2 mL min^-1. The elution occurred in a linear gradient composed of two mobile solvents, water and acetonitrile, each containing TFA (0.1% v/v) (eluent A and B respectively). Its method consisted of an initial phase 1% B (0-1.4 min), a linear increased to 80% B (1.4-13.4 min), a decrease to 50% B (13.4-13.8 min), a decrease to 1% B (13.8-14.4 min) and finally an isocratic elution at 1% B (14.4-18 min). This method was also applied for the kinetic analysis of product release.
Light Sources. Photolytic studies for thymidine release were performed with three light sources. These include: i) UV lamp (XX-15A, Spectroline®) for irradiation at long wavelength UV light (UVA) with a maximal intensity at 365 nm;^4 ii) LZC-420 lamp (Luzchem Research) for visible light at 420 nm; iii) LZC-LBL light emitting diode (LED) lamp (Luzchem Research) for visible (blue) light 445-465 nm. Photon flux density (qn,p = qp/NA, mol × s^-1) of each lamp was determined by ferrioxalate actinometry according to a standard protocol.^52, ^53 […]
Uncaging Kinetics and Analysis. Typically, a solution of photocaged thymidine 1 or 2 (dT^caged: 0.05-0.1 mg/mL) in aq methanol (30-35% v/v) was prepared and exposed to the light at a distance of ~5 cm. After each exposure period, the solution was aliquoted out as a function of irradiation time (0-30 min), and each aliquot was analyzed by UPLC and UV-vis absorption spectrometry to determine the kinetics of thymidine release and byproduct formation. Certain aliquot was further analyzed by HPLC-MS mass spectrometry (ESI) to validate the identity of thymidine and released molecular species in the photolysed solution.
Quantum efficiency (Φ) for the release of thymidine (dT) is defined in eq 1, and its value was calculated according to a standard method as noted in eq 2:^53 […]

[3] = photon uncaging ability of the N-isomer; cited from earlier work

Row | Compound | λmax [1] [nm] | Molar absorptivity ε at 455 nm [1] | Molar absorptivity ε at λmax [1] | Rate constant (first order) for the decay of photocaged thymidine (kdecay) ([2]; irradiation 365 nm (UVA)) [s⁻¹] | Quantum efficiency (Φ) of release for thymidine (dT) ([2]; irradiation 365 nm) | Quantum efficiency (Φ) of release for thymidine-retaining byproduct(s) ([2]; irradiation 365 nm) | Rate constant (first order) for the decay of photocaged thymidine (kdecay) ([2]; irradiation 420 nm (visible)) [s⁻¹] | Quantum efficiency (Φ) of release for thymidine (dT) ([2]; irradiation 420 nm) | Quantum efficiency (Φ) of release for thymidine-retaining byproduct(s) ([2]; irradiation 420 nm) | Rate constant (first order) for the decay of photocaged thymidine (kdecay) ([2]; irradiation 455 nm (visible)) [s⁻¹] | Quantum efficiency (Φ) of release for thymidine (dT) ([2]; irradiation 455 nm) | Quantum efficiency (Φ) of release for thymidine-retaining byproduct(s) ([2]; irradiation 455 nm) | Efficiency of thymidine release (max) [2] [%] | Formation of thymidine-bearing byproduct dT^N-DEACM on photolysis [2] | Decay on irradiation relative to 1 dT^O-DEACM [3] | Undesired species (tr = 7.8 min) in UPLC traces after photolysis ([2]; irradiation 420 nm) | Release of thymidine after initial exposure ([2]; irradiation 420 nm, exposure 5 min) | Faster decay than 1 at 455 nm ([2]; irradiation 455 nm, relative to 1) | Efficiency of thymidine release (max) ([2]; listed as new photocaged thymidine) | Photolysis rate at 455 nm lower than at 420 nm ([2]; ratio of decay rates, 455 nm vs 420 nm)
1 | CCN(CC)c1ccc2c(COc3nc(=O)n([C@H]4C[C@H](O)[C@@H](CO)O4)cc3C)cc(=O)oc2c1 [Compound 1, dT^O-DEACM, reference compound] | 393 | 1,115 M^-1cm^-1 | 10,209 M^-1cm^-1 | 0.00089 | 0.006 | 0.005 | 0.0015 | 0.015 | 0.017 | 0.00012 | 0.017 | 0.023 | 58 | induces a thymidine-bearing byproduct | – | – | – | – | – | –
2 | CCN(CC)c1ccc2c(Cn3c(=O)c(C)cn(C4CC(O)C(CO)O4)c3=O)cc(=O)oc2c1 (stereo not shown) [dT^N-DEACM] | – | – | – | – | – | – | – | – | – | – | – | – | – | – | approximately two orders of magnitude more slowly | – | – | – | – | –
3 | dT^O-Bn-DEACM [Compound 2] | 390 | 1,653 M^-1cm^-1 | 11,603 M^-1cm^-1 | 0.0011 | 0.014 | – | 0.0011 | 0.025 | – | 0.00058 | 0.081 | – | 94 | lack of the byproduct formed | – | have not observed the undesired species | ~ 65% | ~ 5 Fold | ~ 94% | approximately 2 Fold
